Calls of active or inactive are those of the source. No rule for the calls is given here.
assay: lymphoblastoid cell cytotoxicity, dose response, cytotoxicity control, plate reader, dry powder, set 2 (AID 624367); conditions: Lymphoblastoid cell line (LCL) cytotoxicity, plate reader; at 30 µM (top of the series)

SMILES | activity change, negative = cytotoxicity
CN(C)C(=O)c1cccc(-c2cccc(-c3nc(C(=O)NCc4ccccc4)cc4c3[C@@H](CCO)N([S@](=O)C(C)(C)C)C4)c2)c1 | 8.17% (inactive)
Cc1cc(C(=O)Nc2ccc3c(c2)C(=O)N(C)[C@@H]2CC[C@H](CC(=O)NCc4ccc(-c5ccccc5)cc4)O[C@H]2CO3)no1 | -7.18% (inactive)
Cc1noc(C)c1S(=O)(=O)Nc1ccc2c(c1)C(=O)N([C@@H](C)CO)C[C@@H](C)[C@H](CN(C)Cc1ccc(C(F)(F)F)cc1)OCCCC[C@H](C)O2 | -0.638% (inactive)

same assay, conditions: Lymphoblastoid cell line (LCL) cytotoxicity, plate reader; at 35 µM (top of the series)

SMILES | activity change, negative = cytotoxicity
CN1C(=O)c2cc(NC(=O)c3ccc(C(F)(F)F)cc3)ccc2OC[C@@H]2O[C@@H](CC(=O)NC3Cc4ccccc4C3)CC[C@H]21 | -7.43% (inactive)
COc1cccc(S(=O)(=O)N(C)C[C@@H]2Oc3cc(C4=CCCCC4)ccc3S(=O)(=O)N([C@H](C)CO)C[C@H]2C)c1 | 7.75% (inactive)
COc1ccccc1C#Cc1ccc([C@H]2[C@H](C#N)N(C(=O)C3CC3)[C@H]2CO)cc1 | -4.85% (inactive)
CC(C)(C)[S@@](=O)N1Cc2cc(C(=O)NCCc3ccncc3)nc(-c3cccc(-c4cccnc4)c3)c2[C@H]1CCO | 4.85% (inactive)
C[C@H](NC(=O)C[C@@H]1C=C[C@@H](NC(=O)Cc2ccccn2)[C@@H](CO)O1)c1ccccc1 | -1.09% (inactive)
COc1ccc(NC(=O)N(C)C[C@@H]2Oc3cc(C#CCC(C)C)ccc3S(=O)(=O)N([C@@H](C)CO)C[C@@H]2C)cc1 | -0.055% (inactive)
COc1cccc(S(=O)(=O)N(C)C[C@@H]2Oc3cc(C4=CCCCC4)ccc3S(=O)(=O)N([C@@H](C)CO)C[C@H]2C)c1 | 0.436% (inactive)
CO[C@@H]1CN(C)C(=O)c2ccc(NC(C)=O)cc2OC[C@@H](C)N(Cc2ccccc2F)C[C@H]1C | 2.23% (inactive)
COc1ccccc1C#Cc1ccc2c(c1)O[C@H](CN(C)Cc1cccnc1)[C@H](C)CN([C@H](C)CO)S2(=O)=O | -2.03% (inactive)
O=C(C[C@@H]1C[C@H]2c3cc(NS(=O)(=O)c4ccc(F)cc4)ccc3O[C@H]2[C@@H](CO)O1)NC1CCCCC1 | 5.66% (inactive)
C[C@@H]1CN([C@@H](C)CO)C(=O)Cc2cc(NC(=O)Cc3ccccc3)ccc2O[C@H]1CN(C)Cc1ccc(C(F)(F)F)cc1 | -7.42% (inactive)
C[C@@H](NC(=O)C[C@H]1C=C[C@H](NC(=O)Cc2ccccn2)[C@H](CO)O1)c1ccccc1 | 1.04% (inactive)
C[C@H](NC(=O)C[C@H]1C[C@@H]2c3cc(NC(=O)c4cccnc4)ccc3O[C@@H]2[C@@H](CO)O1)c1ccccc1 | -1.74% (inactive)
COc1ccccc1C#Cc1ccc2c(c1)O[C@H](CN(C)Cc1cccnc1)[C@@H](C)CN([C@@H](C)CO)S2(=O)=O | -6.79% (inactive)
C[C@H](NC(=O)C[C@@H]1C=C[C@@H](NC(=O)Cc2ccccn2)[C@H](CO)O1)c1ccccc1 | 3.26% (inactive)
CN(C)c1ccc2c(c1)[C@@H]1C[C@@H](CC(=O)NCc3ccc(Oc4ccccc4)cc3)O[C@H](CO)[C@@H]1O2 | 4.68% (inactive)
C[C@@H]1CN([C@H](C)CO)S(=O)(=O)c2ccc(C#C[C@@H](C)O)cc2O[C@H]1CN(C)Cc1ccc(-c2ccccc2)cc1 | -3.17% (inactive)
Cc1noc(C)c1S(=O)(=O)Nc1ccc2c(c1)C(=O)N([C@@H](C)CO)C[C@H](C)[C@@H](CN(C)Cc1ccc(C(F)(F)F)cc1)OCCCC[C@@H](C)O2 | -4.06% (inactive)
O=C(C[C@@H]1C[C@@H]2c3cc(NC(=O)c4cccnc4)ccc3O[C@@H]2[C@H](CO)O1)NCC(F)(F)F | -0.745% (inactive)
N#C[C@H]1[C@@H](c2ccc(-c3cccnc3)cc2)[C@@H](CO)N1C(=O)Nc1ccc(F)cc1 | 3.54% (inactive)
CO[C@H](CN(C)S(=O)(=O)c1cccc(Cl)c1)[C@@H](C)CN([C@H](C)CO)S(=O)(=O)c1ccc(Cl)cc1 | -9.42% (inactive)
O=C(C[C@@H]1C[C@H]2c3cc(NS(=O)(=O)c4ccc(F)cc4)ccc3O[C@H]2[C@H](CO)O1)NCc1ccc(Oc2ccccc2)cc1 | -1.34% (inactive)
O=C(C[C@@H]1CC[C@@H]2[C@H](COC[C@@H](O)CN2Cc2ccc(Oc3ccccc3)cc2)O1)N1CCc2ccccc2C1 | -13.2% (inactive)
C[C@H](CO)N1C[C@H](C)[C@H](CN(C)Cc2ccc(Oc3ccccc3)cc2)Oc2ccc(NC(=O)CCCN(C)C)cc2C1=O | -0.446% (inactive)
C[C@H]1CN([C@@H](C)CO)C(=O)c2c(c3ccccc3n2C)-c2ccccc2CO[C@H]1CN(C)C(=O)Nc1ccc(F)cc1 | 0.119% (inactive)
CS(=O)(=O)Nc1ccc2c(c1)[C@H]1C[C@@H](CC(=O)NCC3CC3)O[C@@H](CO)[C@H]1O2 | -1.05% (inactive)
C[C@@H](NC(=O)C[C@@H]1C=C[C@@H](NC(=O)Cc2ccccn2)[C@H](CO)O1)c1ccccc1 | 0.18% (inactive)
COc1cccc(S(=O)(=O)N(C)C[C@@H]2Oc3cc(C4=CCCCC4)ccc3S(=O)(=O)N([C@@H](C)CO)C[C@@H]2C)c1 | -5.63% (inactive)

SMILES | activity change, negative = cytotoxicity
COc1ccc(CNC(=O)c2cc3c(c(-c4cccc(-c5ccc(C#N)cc5)c4)n2)[C@@H](CCO)N([S@](=O)C(C)(C)C)C3)cc1 | -0.743% (inactive)
COc1cccc(C#Cc2ccc([C@@H]3[C@@H](C#N)N(C(=O)c4ccccn4)[C@@H]3CO)cc2)c1 | 7.55% (inactive)
Cc1noc(C)c1S(=O)(=O)Nc1ccc2c(c1)C(=O)N([C@@H](C)CO)C[C@H](C)[C@@H](CN(C)Cc1ccc(C(F)(F)F)cc1)OCCCC[C@H](C)O2 | -1.76% (inactive)
C[C@H](NC(=O)C[C@H]1C=C[C@H](NC(=O)Cc2ccccn2)[C@H](CO)O1)c1ccccc1 | 10.5% (inactive)
Cc1noc(C)c1S(=O)(=O)Nc1ccc2c(c1)C(=O)N([C@H](C)CO)C[C@H](C)[C@H](CN(C)Cc1ccc(C(F)(F)F)cc1)OCCCC[C@@H](C)O2 | -2.12% (inactive)
C[C@H]1CN([C@@H](C)CO)C(=O)c2c(c3ccccc3n2C)-c2ccccc2CO[C@@H]1CN(C)C(=O)Nc1ccc(F)cc1 | 1.36% (inactive)
CC(C)(C)[S@@](=O)N1Cc2cc(C(=O)NCc3ccccc3F)nc(-c3cccc(-c4cccnc4)c3)c2[C@H]1CCO | -3.02% (inactive)
O=C(C[C@@H]1C[C@@H]2c3cc(NS(=O)(=O)c4ccc(F)cc4)ccc3O[C@@H]2[C@H](CO)O1)NC1CCCCC1 | 0.429% (inactive)
N#C[C@H]1N[C@H](CO)[C@H]1c1ccc(C#Cc2ccccc2F)cc1 | -8.35% (inactive)
C[C@@H]1CN([C@H](C)CO)S(=O)(=O)c2ccc(/C=C/c3ccccc3)cc2O[C@H]1CN(C)C(=O)NC1CCCCC1 | -0.754% (inactive)
COc1ccc(S(=O)(=O)N(C)C[C@@H]2Oc3ncc(/C=C/c4ccccc4)cc3C(=O)N([C@@H](C)CO)C[C@H]2C)cc1 | -4% (inactive)
O=C(C[C@H]1CC[C@@H]2[C@H](COC[C@H](O)CN2Cc2ccc(Oc3ccccc3)cc2)O1)N1CCc2ccccc2C1 | -13.9% (inactive)
O=C(C[C@H]1C[C@@H]2c3cc(NS(=O)(=O)c4ccc(F)cc4)ccc3O[C@@H]2[C@H](CO)O1)NC1CCCCC1 | 0.09% (inactive)
CN(C)C(=O)c1ccc(-c2cccc(-c3nc(C(=O)NCc4ccccc4)cc4c3[C@@H](CCO)N([S@](=O)C(C)(C)C)C4)c2)cc1 | -1.5% (inactive)
C[C@@H]1CN([C@@H](C)CO)C(=O)Cc2cc(NC(=O)Cc3ccccc3)ccc2O[C@@H]1CN(C)Cc1ccc(C(F)(F)F)cc1 | -0.78% (inactive)
COc1cccc(S(=O)(=O)N(C)C[C@H]2Oc3cc(C4=CCCCC4)ccc3S(=O)(=O)N([C@H](C)CO)C[C@H]2C)c1 | -4.62% (inactive)
Cc1noc(C)c1S(=O)(=O)Nc1ccc2c(c1)C(=O)N([C@H](C)CO)C[C@H](C)[C@@H](CN(C)Cc1ccc(C(F)(F)F)cc1)OCCCC[C@@H](C)O2 | -2.6% (inactive)
C[C@@H]1CN([C@H](C)CO)C(=O)c2c(c3ccccc3n2C)-c2ccccc2CO[C@@H]1CN(C)C(=O)Nc1ccc(F)cc1 | -1.38% (inactive)
C[C@H](NC(=O)C[C@H]1C=C[C@@H](NC(=O)Cc2ccccn2)[C@@H](CO)O1)c1ccccc1 | 6.04% (inactive)
Cc1noc(C)c1S(=O)(=O)Nc1ccc2c(c1)C(=O)N([C@H](C)CO)C[C@H](C)[C@@H](CN(C)Cc1ccc(C(F)(F)F)cc1)OCCCC[C@H](C)O2 | -4.42% (inactive)
COc1ccc(S(=O)(=O)N(C)C[C@H]2Oc3ncc(/C=C/c4ccccc4)cc3C(=O)N([C@H](C)CO)C[C@@H]2C)cc1 | 7.14% (inactive)
C[C@@H](NC(=O)C[C@@H]1C=C[C@H](NC(=O)Cc2ccccn2)[C@@H](CO)O1)c1ccccc1 | -4.44% (inactive)
C[C@@H]1CN([C@@H](C)CO)S(=O)(=O)c2ccc(C#C[C@@H](C)O)cc2O[C@H]1CN(C)Cc1ccc(-c2ccccc2)cc1 | -1.38% (inactive)
O=C(Cc1ccccn1)NCC[C@H]1CC[C@@H](NC(=O)Nc2ccc(Cl)cc2)[C@H](CO)O1 | -1.08% (inactive)
CC(C)(C)[S@@](=O)N1Cc2cc(C(=O)NCc3ccccc3F)nc(-c3cccc(-c4ccncc4)c3)c2[C@H]1CCO | 0.812% (inactive)
Cc1cc(C(=O)Nc2ccc3c(c2)C(=O)N(C)[C@H]2CC[C@H](CC(=O)NCc4ccc(-c5ccccc5)cc4)O[C@H]2CO3)no1 | -10.2% (inactive)
O=C(Cc1ccccn1)NCC[C@@H]1CC[C@H](NC(=O)Nc2ccc(Cl)cc2)[C@H](CO)O1 | 7.74% (inactive)
